Earlier results in patent US6773669B1, “Flow electroporation chamber and method” (Maxcyte, Inc., priority 1995, dated 2004).

Key:
[1] = experimental animals; DPG or precursors of DPG; transient
hemoglobin [2] = target: T1, hemoglobin (Homo sapiens, UniProt P68871); settings: higher than DPG; Benesch et al. 1977
hemoglobin [3] = target: T1, hemoglobin; settings: pH 7.4, 37 degrees C; J. Biol. Chem. 1975

T1 sequence (P68871 2-147 limits assumed): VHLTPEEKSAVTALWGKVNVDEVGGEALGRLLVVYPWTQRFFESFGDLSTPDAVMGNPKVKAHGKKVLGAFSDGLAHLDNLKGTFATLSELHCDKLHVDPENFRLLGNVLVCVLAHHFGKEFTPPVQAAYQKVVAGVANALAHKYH
T1 sequence (P69905 2-142 partner limits assumed): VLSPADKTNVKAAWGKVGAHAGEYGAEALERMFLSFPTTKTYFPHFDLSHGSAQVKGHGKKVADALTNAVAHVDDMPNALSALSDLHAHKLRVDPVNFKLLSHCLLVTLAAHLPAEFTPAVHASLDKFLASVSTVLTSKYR

O=C(O)C(COP(=O)(O)O)OP(=O)(O)O (stereo not drawn) [DPG, 2,3-diphosphoglycerate]
duration of elevation of oxygen deposition [1]: 6 to 12 h

O=P(O)(O)O[C@H]1[C@H](OP(=O)(O)O)[C@@H](OP(=O)(O)O)[C@H](OP(=O)(O)O)[C@@H](OP(=O)(O)O)[C@H]1OP(=O)(O)O [IHP, inositol hexaphosphate]
affinity to hemoglobin relative to DPG (hemoglobin [2]): 1000 fold | P50 of hemoglobin (hemoglobin [3]): ≤ 96.4 mm Hg
